In US20170209445A1, “KINASE INHIBITORS” (Respivert Limited, priority 2014, published 2017):

Tested on: PBMCs
Assay: LPS-induced IL-8 release in PBMC cells
Assay type: cell-based
Conditions: Homo sapiens, LPS-stimulated PBMCs, read-out: IC50 Values for Inhibition of Cytokine Release PBMCs IL-8
Description: Peripheral blood mononuclear cells (PBMCs) from healthy subjects are separated from whole blood using a density gradient (Lymphoprep, Axis-Shield Healthcare). The PBMCs are seeded in 96 well plates and treated with compounds at the desired concentration for 2 hours before addition of 1 ng/mL LPS (Escherichia Coli 0111:B4 from Sigma Aldrich) for 24 hours under normal tissue culture conditions (37° C., 5% CO2). The supernatant is harvested for determination of IL-8 and TNFα concentrations by sandwich ELISA (Duo-set, R&D systems) and read on the fluorescence microplate reader (Varioskan® Flash, ThermoFisher Scientific).

COc1cc(Nc2ncc3cc(-c4cc(C(=O)Nc5cc(C(C)(C)C)cc(NS(C)(=O)=O)c5OC)ccc4C)ccc3n2)ccc1C(=O)NCCN1CCN(C)CC1 [14(z), 4-((6-(5-((5-(tert-Butyl)-2-methoxy-3-(methylsulfonamido)phenyl)carbamoyl)-2-methyl-phenyl)quinazolin-2-yl)amino)-2-methoxy-N-(2-(4-methylpiperazin-1-yl)ethyl)benzamide]
IC50: 6 nM

COc1cc(Nc2ncc3cc(-c4cc(C(=O)Nc5cc(C(C)(C)C)cc(NS(C)(=O)=O)c5OC)ccc4C)ccc3n2)ccc1C(=O)NCCc1cccnc1 [14(ag), 4-((6-(5-((5-(tert-Butyl)-2-methoxy-3-(methylsulfonamido)phenyl)carbamoyl)-2-methylphenyl)quinazolin-2-yl)amino)-2-methoxy-N-(2-(pyridin-3-yl)ethyl)benzamide]
IC50: 11.6 nM

COc1cc(Nc2ncc3cc(-c4cc(C(=O)Nc5cc(C(C)(C)C)cc(NS(C)(=O)=O)c5OC)ccc4C)ccc3n2)ccc1C(=O)NCCN1CCOCC1 [14(am), 4-((6-(5-((5-(tert-Butyl)-2-methoxy-3-(methylsulfonamido)phenyl)carbamoyl)-2-methylphenyl)quinazolin-2-yl)amino)-2-methoxy-N-(2-morpholinoethyl)benzamide]
IC50: 19.5 nM

COCCOCCOCCOc1cc(C#N)cc(Nc2ncc3cc(-c4cc(C(=O)Nc5cc(C(C)(C)C)cc(NS(C)(=O)=O)c5OC)ccc4C)ccc3n2)c1 [14(f), N-(5-(tert-Butyl)-2-methoxy-3-(methylsulfonamido)phenyl)-3-(2-((3-cyano-5-(2-(2-(2-methoxyethoxy)ethoxy)ethoxy)phenyl)amino)quinazolin-6-yl)-4-methylbenzamide]
IC50: 10.4 nM

COc1c(NC(=O)c2ccc(C)c(-c3ccc4nc(Nc5cccc(N=S(C)(C)=O)c5)ncc4c3)c2)cc(C(C)(C)C)cc1NS(C)(=O)=O [14(q), N-(5-(tert-Butyl)-2-methoxy-3-(methylsulfonamido)phenyl)-3-(2-((3-((dimethyl(oxo)-I6-sulfanylidene)amino)phenyl)amino)quinazolin-6-yl)-4-methylbenzamide]
IC50: 6.1 nM

COc1cc(Nc2ncc3cc(-c4cc(C(=O)Nc5cc(C(C)(C)C)cc(NS(C)(=O)=O)c5OC)ccc4C)ccc3n2)ccc1C(=O)NCCN1CCC(O)CC1 [14(ah), 4-((6-(5-((5-(tert-Butyl)-2-methoxy-3-(methylsulfonamido)phenyl)carbamoyl)-2-methylphenyl)quinazolin-2-yl)amino)-N-(2-(4-hydroxypiperidin-1-yl)ethyl)-2-methoxybenzamide]
IC50: 8 nM

COc1cc(Nc2ncc3cc(-c4cc(C(=O)Nc5cc(C(C)(C)C)cc(NS(C)(=O)=O)c5OC)ccc4C)ccc3n2)ccc1C(=O)NCCn1ccnc1C [14(ae), 4-((6-(5-((5-(tert-Butyl)-2-methoxy-3-(methylsulfonamido)phenyl)carbamoyl)-2-methyl-phenyl)quinazolin-2-yl)amino)-2-methoxy-N-(2-(2-methyl-1H-imidazol-1-yl)ethyl)benzamide]
IC50: 6.5 nM

COCCOCCOCCOc1cc(Nc2ncc3cc(-c4cc(C(=O)Nc5cc(C(C)(C)C)cc(NS(C)(=O)=O)c5OC)ccc4C)ccc3n2)cc(C(F)(F)F)c1 [14(s), N-(5-(tert-Butyl)-2-methoxy-3-(methylsulfonamido)phenyl)-3-(2-((3-(2-(2-(2-methoxyethoxy)ethoxy)ethoxy)-5-(trifluoromethyl)phenyl)amino)quinazolin-6-yl)-4-methylbenzamide]
IC50: 35.6 nM

C#Cc1cc(Nc2ncc3cc(-c4cc(C(=O)Nc5cc(C(C)(C)C)cc(NS(C)(=O)=O)c5OC)ccc4C)ccc3n2)cc(OCCOCCOCCOC)c1 [14(k), N-(5-(tert-Butyl)-2-methoxy-3-(methylsulfonamido)phenyl)-3-(2-((3-ethynyl-5-(2-(2-(2-methoxyethoxy)ethoxy)ethoxy)phenyl)amino)quinazolin-6-yl)-4-methylbenzamide]
IC50: 16.7 nM

C#Cc1cc(Nc2ncc3cc(-c4cc(C(=O)Nc5cc(C(C)(C)C)cc(NS(C)(=O)=O)c5OC)ccc4C)ccc3n2)cc(C(=O)NCCOC)c1 [14(n), N-(5-(tert-Butyl)-2-methoxy-3-(methylsulfonamido)phenyl)-3-(2-((3-ethynyl-5-((2-methoxyethyl)carbamoyl)phenyl)amino)quinazolin-6-yl)-4-methylbenzamide]
IC50: 11 nM

COc1cc(Nc2ncc3cc(-c4cc(C(=O)Nc5cc(C(C)(C)C)cc(NS(C)(=O)=O)c5OC)ccc4C)ccc3n2)ccc1C(=O)NCCN1CCCC1 [14(ak), 4-((6-(5-((5-(tert-Butyl)-2-methoxy-3-(methylsulfonamido)phenyl)carbamoyl)-2-methylphenyl)quinazolin-2-yl)amino)-2-methoxy-N-(2-(pyrrolidin-1-yl)ethyl)benzamide]
IC50: 14.8 nM

C#Cc1cc(Nc2ncc3cc(-c4cc(C(=O)Nc5cc(C(C)(C)C)cc(NS(C)(=O)=O)c5OC)ccc4C)ccc3n2)cc(C(=O)NCCOCCOC)c1 [14(m), N-(5-(tert-Butyl)-2-methoxy-3-(methylsulfonamido)phenyl)-3-(2-((3-ethynyl-5-((2-(2-methoxyethoxy)ethyl)carbamoyl)phenyl)amino)quinazolin-6-yl)-4-methylbenzamide]
IC50: 10.4 nM

COc1c(NC(=O)c2ccc(C)c(-c3ccc4nc(Nc5cccc(P(C)(C)=O)c5)ncc4c3)c2)cc(C(C)(C)C)cc1NS(C)(=O)=O [14(h), N-(5-(tert-Butyl)-2-methoxy-3-(methylsulfonamido)phenyl)-3-(2-((3-(dimethylphosphoryl)phenyl)amino)quinazolin-6-yl)-4-methylbenzamide]
IC50: 9.4 nM

COc1cc(Nc2ncc3cc(-c4cc(C(=O)Nc5cc(C(C)(C)C)cc(NS(C)(=O)=O)c5OC)ccc4C)ccc3n2)ccc1C(=O)NC1CCN(C)CC1 [14(ac), 4-((6-(5-((5-(tert-Butyl)-2-methoxy-3-(methylsulfonamido)phenyl)carbamoyl)-2-methylphenyl)quinazolin-2-yl)amino)-2-methoxy-N-(1-methylpiperidin-4-yl)benzamide]
IC50: 5.1 nM

COc1cc(Nc2ncc3cc(-c4cc(C(=O)Nc5cc(C(C)(C)C)cc(NS(C)(=O)=O)c5OC)ccc4C)ccc3n2)ccc1C(=O)NCCCN1CCCOCC1 [14(ab), N-(3-(1,4-Oxazepan-4-yl)propyl)-4-((6-(5-((5-(tert-butyl)-2-methoxy-3-(methyl-sulfonamido)phenyl)carbamoyl)-2-methylphenyl)quinazolin-2-yl)amino)-2-methoxybenzamide]
IC50: 5.4 nM

COCCOCCOCCOc1cc(F)cc(Nc2ncc3cc(-c4cc(C(=O)Nc5cc(C(C)(C)C)cc(NS(C)(=O)=O)c5OC)ccc4C)ccc3n2)c1 [14(l), N-(5-(tert-Butyl)-2-methoxy-3-(methylsulfonamido)phenyl)-3-(2-((3-fluoro-5-(2-(2-(2-methoxyethoxy)ethoxy)ethoxy)phenyl)amino)quinazolin-6-yl)-4-methylbenzamide]
IC50: 16.6 nM

COc1cc(Nc2ncc3cc(-c4cc(C(=O)Nc5cc(C(C)(C)C)cc(NS(C)(=O)=O)c5OC)ccc4C)ccc3n2)ccc1C(=O)NCCS(C)(=O)=O [14(ad), 4-((6-(5-((5-(tert-Butyl)-2-methoxy-3-(methylsulfonamido)phenyl)carbamoyl)-2-methylphenyl)quinazolin-2-yl)amino)-2-methoxy-N-(2-(methylsulfonyl)ethyl)benzamide]
IC50: 7 nM

COc1cc(Nc2ncc3cc(-c4cc(C(=O)Nc5cc(C(C)(C)C)cc(NS(C)(=O)=O)c5OC)ccc4C)ccc3n2)ccc1C(=O)NCCOCCOCCO [14(v), 4-((6-(5-((5-(tert-Butyl)-2-methoxy-3-(methylsulfonamido)phenyl)carbamoyl)-2-methylphenyl)quinazolin-2-yl)amino)-N-(2-(2-(2-hydroxyethoxy)ethoxy)ethyl)-2-methoxybenzamide]
IC50: 4.4 nM

COCCOCCNC(=O)c1ccc(Nc2ncc3cc(-c4cc(C(=O)Nc5cc(C(C)(C)C)cc(NS(C)(=O)=O)c5OC)ccc4C)ccc3n2)cc1OC [14(w), 4-((6-(5-((5-(tert-Butyl)-2-methoxy-3-(methylsulfonamido)phenyl)carbamoyl)-2-methylphenyl)quinazolin-2-yl)amino)-2-methoxy-N-(2-(2-methoxyethoxy)ethyl)benzamide]
IC50: 8.4 nM

COc1c(NC(=O)c2ccc(C)c(-c3ccc4nc(Nc5ccc(OS(C)(=O)=O)cc5)ncc4c3)c2)cc(C(C)(C)C)cc1NS(C)(=O)=O [14(j), 4-((6-(5-((5-(tert-Butyl)-2-methoxy-3-(methylsulfonamido)phenyl)carbamoyl)-2-methylphenyl)quinazolin-2-yl)amino)phenyl methanesulfonate]
IC50: 9.1 nM

COCCOCCOCCNC(=O)c1ccc(Nc2ncc3cc(-c4cc(C(=O)Nc5cc(C(C)(C)C)cc(NS(C)(=O)=O)c5OC)ccc4C)ccc3n2)cc1OC [14(p), 4-((6-(5-((5-(tert-Butyl)-2-methoxy-3-(methylsulfonamido)phenyl)carbamoyl)-2-methylphenyl)quinazolin-2-yl)amino)-2-methoxy-N-(2-(2-(2-methoxyethoxy)ethoxy)ethyl)benzamide]
IC50: 7.5 nM

COc1c(NC(=O)c2ccc(C)c(-c3ccc4nc(Nc5cccc(C(=O)NCCN6CCOCC6)c5)ncc4c3)c2)cc(C(C)(C)C)cc1NS(C)(=O)=O [14(d), N-(5-(tert-Butyl)-2-methoxy-3-(methylsulfonamido)phenyl)-4-methyl-3-(2-((3-((2-morpholinoethyl)carbamoyl)phenyl)amino)quinazolin-6-yl)benzamide]
IC50: 8.3 nM

COc1cc(Nc2ncc3cc(-c4cc(C(=O)Nc5cc(C(C)(C)C)cc(NS(C)(=O)=O)c5OC)ccc4C)ccc3n2)ccc1C(=O)NCCCN1CC[S+]([O-])CC1 [Example 11, 4-((6-(5-((5-(tert-Butyl)-2-methoxy-3-(methylsulfonamido)phenyl)carbamoyl)-2-methylphenyl)-quinazolin-2-yl)amino)-2-methoxy-N-(3-(1-oxidothiomorpholino)propyl)benzamide]
IC50: 7.6 nM
